In brackets after ≈: the same amount, converted by molar mass. Read-outs that look alike come from different tables or passages of the source.
Columns and labels:
[1] = tested on: Staphylococcus aureus NRS384 (MRSA USA300); assay: Initial MIC screening, broth microdilution (CLSI); format: cell-based; details: for MIC: Staphylococcus aureus NRS384 (MRSA USA300), broth microdilution, visual reading
Procedure: Method: The minimum inhibitory concentration (MIC) of the compounds 1-187, and control antibiotics (vancomycin, linezolid) was determined using the broth microdilution method against methicillin-resistant Staphylococcus aureus (MRSA) USA 300 using the broth microdilution method according to the guidelines outlined by the Clinical and Laboratory Standards Institute (CLSI). MRSA strain was cultivated on Tryptic soy agar plates and let grow for 24 hours at 37° C. under aerobic conditions. Bacterial suspension equivalent to 0.5 McFarland standard was prepared and diluted in cation-adjusted Mueller-Hinton broth (CAMHB) to attain a bacterial concentration of 5×10^5 CFU/ml and seeded in 96-well plates. The desired concentrations of each drug and compound were added in the first row of the 96-well plates and serially diluted to achieve a concentration gradient from 64 μg/ml to 0.5 μg/mL.

[2] = tested on: Enterococcus faecalis ATCC 51299 (VRE); assay: MIC, Gram-positive panel; format: cell-based
Procedure: (§1) Next, the spectrum of antibacterial activity of compounds 144, 148, 149, 151, 155, 158, and 187 was examined against a panel of clinically relevant Gram-positive bacterial pathogens including methicillin-resistant Staphylococcus aureus (MRSA), vancomycin-resistant Staphylococcus aureus (VRSA), vancomycin-resistant Enterococcus faecalis and Enterococcus faecium (VRE), and Streptococcus pneumoniae. Bacterial strains were grown aerobically overnight on tryptone soya agar plates at 37° C. Afterwards, a bacterial solution equivalent to 0.5 McFarland standard was prepared and diluted in cation-adjusted Mueller-Hinton broth (CAMHB) (for staphylococci). Enterococci and Streptococci were diluted in tryptone soya broth (TSB) to achieve a bacterial concentration of about 5×10^5 CFU/mL and seeded in 96-well plates. Compounds and control drugs were added in the first row of 96-well plates and serially diluted with media containing bacteria. Plates were then, incubated aerobically at 37° C. for 18-20 hours (except for S. pneumoniae, which was incubated at 37° C. in presence of 5% CO2 for 18-20 hours).

[3] = tested on: Enterococcus faecium ATCC 700221 (VRE); assay: MIC, Gram-positive panel; format: cell-based
Procedure: as §1

[4] = tested on: MRSA NRS 119; assay: MIC, Gram-positive panel; format: cell-based; details: Staphylococcus aureus
Procedure: as §1

[5] = tested on: MRSA NRS 123; assay: MIC, Gram-positive panel; format: cell-based; details: Staphylococcus aureus
Procedure: as §1

[6] = tested on: MRSA NRS 385; assay: MIC, Gram-positive panel; format: cell-based; details: Staphylococcus aureus
Procedure: as §1

[7] = tested on: MRSA NRS 386; assay: MIC, Gram-positive panel; format: cell-based; details: Staphylococcus aureus
Procedure: as §1

[8] = tested on: Methicillin-resistant S. epidermidis NRS101; assay: MIC, Gram-positive panel; format: cell-based; details: Staphylococcus epidermidis
Procedure: as §1

[9] = tested on: Methicillin-resistant S. pneumoniae ATCC 700677; assay: MIC, Gram-positive panel; format: cell-based; details: Streptococcus pneumoniae, ATCC700677
Procedure: as §1

[10] = tested on: S. aureus ATCC 6538; assay: MIC, Gram-positive panel; format: cell-based; details: Staphylococcus aureus, ATCC6538
Procedure: as §1

[11] = tested on: S. aureus NRS 107; assay: MIC, Gram-positive panel; format: cell-based; details: Staphylococcus aureus, NRS107
Procedure: as §1

[12] = tested on: S. pneumoniae ATCC 51916; assay: MIC, Gram-positive panel; format: cell-based; details: Streptococcus pneumoniae, ATCC51916
Procedure: as §1

[13] = tested on: VRSA 10; assay: MIC, Gram-positive panel; format: cell-based; details: Staphylococcus aureus
Procedure: as §1

[14] = tested on: VRSA 12; assay: MIC, Gram-positive panel; format: cell-based; details: Staphylococcus aureus
Procedure: as §1

[15] = tested on: MRSA USA 400; assay: Time-kill assay; format: cell-based, Staphylococcus aureus; details: 5×MIC; for time required for complete eradication of the bacterial count: MRSA USA 400, 24-hour incubation
Procedure: In order to the mode of killing of methylene lactone compounds, a time kill assay was performed against MRSA USA 400 as described previously. MRSA USA400 cells in logarithmic growth phase (OD600˜1.00) were diluted to 6.03×10^6 colony-forming units (CFU/mL) and exposed to concentrations equivalent to 5×MIC (in triplicate) of 148, 149, 151, 155, 158 and vancomycin in Tryptic soy broth. Aliquots (100 μL) were collected from each treatment after 0, 2, 4, 6, 8, 12, and 24 hours of incubation at 37° C. and subsequently serially diluted in PBS. Bacteria were then transferred to Tryptic soy agar plates and incubated at 37° C. for 18-20 hours before viable CFU/mL was determined (FIG. 1).
DMSO (solvent for the compounds) served as a negative control and vancomycin served as a control drug. The error bars represent standard deviation values obtained from triplicate samples used for each compound/antibiotic studied.

[16] = tested on: total proteases production in MRSA USA300; assay: Inhibition of staphylococcal total proteases production, skimmed milk method; format: cell-based, Staphylococcus aureus; details: MRSA USA300, 0.25×MIC, untreated = 100%
Procedure: The modified skimmed milk method was utilized to investigate the protease inhibitory activities of BHS compounds as described previously. In brief, overnight culture of MRSA300 in TSB, with and without subinhibitory concentrations of compounds (in triplicate), was centrifuged at 14000×g for 10 minutes. Then, a total volume of 500 μL of culture supernatant was incubated with 1 mL skimmed milk (1.25%) at 37° C. for 1 hour. Afterwards, the OD600 was measured to indicate the degree of clearance of skimmed milk. Higher OD values indicate lower proteolytic activity and greater protease inhibitory activity.
FIG. 4. Influence of BHS compounds on the staphylococcal total protease production. OD600 was measured following overnight culturing of MRSA USA300 in TSB in presence and absence of 0.25×MIC of 148, 149, 155, 158 and vancomycin followed by incubation of supernatants with skim milk for 1 hour at 37° C. The Data are presented as percent production (means±standard deviation). DMSO (the solvent for the compounds that served as a negative control). Vancomycin served as the control antibiotic. The values represent an average (means±standard deviation) of four samples analyzed for each compound/antibiotic. Error bars represent standard deviation values. An asterisk (*) denotes statistical significance (P<0.05) between results for compounds 148, 149, 155, 158 and vancomycin analyzed via unpaired t test ([…]).

[17] = tested on: intracellular MRSA USA400 inside murine macrophage (J774) cells; assay: Clearance of intracellular MRSA in infected J774 macrophages; format: cell-based, Staphylococcus aureus; details: 24 hours, J774 infected with MRSA USA400
Procedure: The ability of the compound 148 to reduce the burden of intracellular MRSA was evaluated utilizing previously described methods. Murine macrophage cells (J774) were cultured in Dulbecco's Modified Eagle Medium (DMEM) supplemented with 10% FBS at 37° C. with CO2 (5%). J774 cells were exposed to MRSA USA400 cells at a multiplicity of infection of approximately 10:1. After 1 hour of infection, J774 cells were washed with gentamicin (200 μg/mL) to kill extracellular MRSA. The compounds or vancomycin (at 4×MIC and 8×MIC) were subsequently added to each well (four replicates per test agent). Control cells received DMSO at a concentration equal to that in drug-treated cell samples. After 24 hours-incubation at 37° C. with 5% CO2, the test agents were removed. J774 cells were washed and subsequently lysed using 0.1% Triton-X. The solution was serially diluted in phosphate-buffered saline and transferred to TSA plates in order to determine viable MRSA CFU inside the J774 cells. Plates were incubated at 37° C. for 18-22 hour before counting viable CFU/mL. Statistical significance was assessed with two-way ANOVA, with post hoc Dunnet's multiple comparisons test (P<0.05), utilizing GraphPad Prism 6.0 (GraphPad Software, La Jolla, Calif.).
FIG. 6. Examination of the activity of compounds 148 on the clearance of intracellular MRSA present inside infected murine macrophage (J774) cells. […] Data were analyzed via two-way ANOVA, with post hoc Dunnet's multiple comparisons test (P<0.05), utilizing GraphPad Prism 6.0 (GraphPad Software, La Jolla, Calif.). Asterisks (*) represent significant difference between treatment of J774 cells with compound 148 in comparison to vancomycin.

C=C(C(=O)OC)C(c1ccc2ccccc2c1)C(O)c1ccc2ccccc2c1 (stereo not shown) [Compound 149]
potency compared with control antibiotic ([1]; MRSA USA300, Table 1 assay): potency comparable to vancomycin
MIC [1]: 2 µg/mL (≈ 5.23 µM)
MIC ([1]; Staphylococcus aureus, read-out: MIC): 1 to 2 µg/mL (≈ 2.61 to 5.23 µM)
MIC ([2]; Enterococcus faecalis ATCC 51299 (VRE), read-out: MIC): > 64 µg/mL
MIC ([3]; Enterococcus faecium ATCC 700221 (VRE), read-out: MIC): > 64 µg/mL
MIC ([4]; MRSA NRS 119, read-out: MIC): 1 µg/mL (≈ 2.61 µM)
MIC ([5]; MRSA NRS 123, read-out: MIC): 1 µg/mL (≈ 2.61 µM)
MIC ([6]; MRSA NRS 385, read-out: MIC): 1 µg/mL (≈ 2.61 µM)
MIC ([7]; MRSA NRS 386, read-out: MIC): 1 µg/mL (≈ 2.61 µM)
MIC ([8]; Methicillin-resistant S. epidermidis NRS101, read-out: MIC): 2 µg/mL (≈ 5.23 µM)
MIC ([9]; Methicillin-resistant S. pneumoniae ATCC 700677, read-out: MIC): 4 µg/mL (≈ 10.5 µM)
MIC ([10]; S. aureus ATCC 6538, read-out: MIC): 1 µg/mL (≈ 2.61 µM)
MIC ([11]; S. aureus NRS 107, read-out: MIC): 1 µg/mL (≈ 2.61 µM)
MIC ([12]; S. pneumoniae ATCC 51916, read-out: MIC): 4 µg/mL (≈ 10.5 µM)
MIC ([13]; VRSA 10, read-out: MIC): 8 µg/mL (≈ 20.9 µM)
MIC ([14]; VRSA 12, read-out: MIC): 16 µg/mL (≈ 41.8 µM)
time required for complete eradication of the bacterial count [15]: not able to completely eradicate it after 24 hours
reduction in the bacterial count after 6 hours ([15]; MRSA USA 400, after 6 hours): 3 log10
reduction in the bacterial count after 6 hours (percent) ([15]; MRSA USA 400, after 6 hours): 99.9%
total protease production [16]: 63%

CN[C@H](CC(C)C)C(=O)N[C@H]1C(=O)N[C@@H](CC(N)=O)C(=O)N[C@H]2C(=O)N[C@H]3C(=O)N[C@H](C(=O)N[C@H](C(=O)O)c4cc(O)cc(O)c4-c4cc3ccc4O)[C@H](O)c3ccc(c(Cl)c3)Oc3cc2cc(c3O[C@@H]2O[C@H](CO)[C@@H](O)[C@H](O)[C@H]2O[C@H]2C[C@](C)(N)[C@H](O)[C@H](C)O2)Oc2ccc(cc2Cl)[C@H]1O [vancomycin, reference compound]
MIC ([2]; Enterococcus faecalis): 32 µg/mL (≈ 22.1 µM)
MIC ([3]; Enterococcus faecium): > 64 µg/mL
MIC [4]: 1 µg/mL (≈ 0.69 µM)
MIC [5]: 1 µg/mL (≈ 0.69 µM)
MIC [6]: 1 µg/mL (≈ 0.69 µM)
MIC [7]: 1 µg/mL (≈ 0.69 µM)
MIC ([8]; NRS101): 2 µg/mL (≈ 1.38 µM)
MIC [9]: 2 µg/mL (≈ 1.38 µM)
MIC [10]: 1 µg/mL (≈ 0.69 µM)
MIC [11]: 2 µg/mL (≈ 1.38 µM)
MIC [12]: 2 µg/mL (≈ 1.38 µM)
MIC ([13]; VRSA): > 64 µg/mL
MIC ([14]; VRSA): > 64 µg/mL
time required for complete eradication of the bacterial count [15]: 12 h
total protease production [16]: ineffective
reduction of intracellular MRSA ([17]; 4 μg/mL): not able to reduce
reduction of intracellular MRSA ([17]; 8 μg/mL): not able to reduce
